We go through twelve molecules from patent US8637521B2, “Substituted piperazin-2,5-diones and their use as multifunctional bioactive compounds” (priority 2006, dated 2014).

Assay [1] addresses μ-receptor (isolated guinea pig ileum, GPI) (Cavia porcellus, UniProt P97266). Briefly: Peripheral opioid activity: inhibition of electrically-induced contractions of isolated guinea pig ileum (GPI). The following applies: for Value of pD2 (M ± m): negative logarithm of EC50; for EC50: concentration reducing contraction amplitude by 50%, 5 replications. As to the method: The segment of GPI about 1 cm long was placed into a 10-ml organ bath containing Krebs solution at 34° C. […] Resting tension of the organ was 1 g. The segment of GPI was stimulated by single pulses duration 1 ms with 0.1 Hz at 80 V. The solution with isolated organs was constantly aerated. The contractions were recorded in an isometrical mode by a sensor K 30 (Hugo Sachs Elektronic KG) with paper register Rikadenki-series (Japan).
The substances tested were dissolved in distilled water and added cumulatively to the organ bath at a volume of 5 to 30 mcl. Each subsequent substance was added after the isolated organs were washed 3 or 4 times for 12-15 min. On the basis of the data obtained, dose-effects curves were plotted and the activity of substances was expressed by IC50 or pD2. The pD2 index was equal to a negative decimal logarithm of the substance concentration causing a 50% of the maximal effect.
New dermorphin analogues were tested in the standard model of Guinea pig ileum binding test.
For confirmation of opioid activity, the specific antagonist naloxson was used in concentration of 10^−5M. Each molecule was tested in 5 independent replications and relative activity was calculated as negative logarithm of EC50 (pD2).

In the next assay the test system is BALB/c male mice. Briefly: Antinociceptive activity, tail flick test with heat radiation, intragastral or intraperitoneal. The assay is classed as in vivo. The following applies: for Effect duration: 15 min, cut-off 6 sec. As to the method: For estimation of oral activity of novel cyclopeptides of the present invention, the “tail flick” test was used. The results were compared with those obtained using intraperitoneal administration.
Antinociceptive activity of the peptides of the present invention was assessed in experiments on BALB/c male mice weighing 22 to 24 g. The peptides were dissolved in saline and administered intraperitoneally or intragastrally.
The “Tail flick” test (D'Amour, F. E. et al. “A Method for Determining Loss of Pain Sensation”, J. Pharmacol. Exp. Ther., Vol. 72, Pages 74 to 79, 1941) was performed on an analgesimeter type 812, Hugo Sachs Electronick KG. Antinociceptive activity was defined as the absence of tail flick response on stimulation with a focused bundle of heat radiation with 6 sec at baseline response of 2.0-3.0 seconds.
Statistical treatment of the results was carried out by the Student's paired t-test.

The subject of a further assay is mice F1(CBAxC57D16). The experiment in a line: Analgesic activity, tail flick test, water 48° C., intraperitoneal. The assay is classed as in vivo. The following applies: Table 10; for Initial sensitivity level: before injection. As to the method: Two hundred and twenty mice F1(CBAxC57D16) first generation hybrids were used for testing of analgesic activity using the “tail flick” test. The water temperature was at 48° C. The maximal effect was for the period of 30 seconds. All peptides were injected intraperitoneally in the doses of 5, 10 or 20 mg/kg. Analgesic effect was estimated in the time interval of 15 to 120 min after peptide injection. Student's t-criterion was used for statistical calculations of the results. Statistical significance were at the level of p≦0.05.

The mark [2] stands for this setting: Table 12, intraperitoneal 10 mg/kg group, before injection.
Where [3] appears, read: Table 12, intraperitoneal 10 mg/kg.
Where [4] appears, read: Table 11, oral 50 mg/kg group, before administration.

Read-outs that look alike come from different tables or passages of the source. Square brackets hold non-standard residues; d marks the D form. Peptide text beside a SMILES is read from it. * marks the point of attachment. X1 = O=C(O)CC[C@@H]1NC(=O)[C@H](CCCCN*)NC1=O

Sequence of μ-receptor (isolated guinea pig ileum, GPI) (P97266 whole entry): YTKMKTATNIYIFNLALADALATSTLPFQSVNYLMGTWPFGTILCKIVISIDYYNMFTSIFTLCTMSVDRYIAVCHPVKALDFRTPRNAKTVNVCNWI

For the molecule `C[C@@H](NC(=O)[C@H](Cc1ccccc1)NC(=O)[C@@H](C)NC(=O)[C@@H](N)Cc1ccc(O)cc1)C(=O)NCCCC[C@@H]1NC(=O)[C@H](CCC(=O)O)NC1=O` [Compound 44, Cyclo-[L-Lys(H-Tyr-D-Ala-Phe-D-Ala)-L-Glu(OH)]] (H-Y[dA]F[dA]-X1), the “Value of pD2 (M ± m)” value in assay [1] is on record as 6.15 ± 0.10. Further, in assay [1] (read-out: Median EC50 in M), the EC50 is 570 nM.
For `COC(=O)[C@H](Cc1c[nH]c2ccccc12)NC(=O)CC[C@@H]1NC(=O)[C@H](CCCCNC(=O)[C@@H](C)NC(=O)[C@H](Cc2ccccc2)NC(=O)[C@@H](C)NC(=O)[C@@H](N)Cc2ccc(O)cc2)NC1=O` [Compound 45, Cyclo-[L-Lys(H-Tyr-D-Ala-Phe-D-Ala)-L-Glu(L-Trp-OMe)]], in that order: 5.68 ± 0.09 and 2000 nM.
As to `C[C@@H](NC(=O)[C@H](Cc1ccccc1)NC(=O)[C@@H](C)NC(=O)[C@@H](N)Cc1ccc(O)cc1)C(=O)N[C@@H](Cc1ccc(O)cc1)C(=O)N1CCC[C@H]1C(=O)N[C@@H](CO)C(=O)NCCCC[C@@H]1NC(=O)[C@H](CCC(=O)N[C@@H](Cc2c[nH]c3ccccc23)C(N)=O)NC1=O` [Compound 46, Cyclo-[L-Lys(H-Tyr-D-Ala-Phe-D-Ala-Tyr-Pro-Ser)-L-Glu(L-Trp-NH2)]], in assay [1], the “Value of pD2 (M ± m)” value was 7.96 ± 0.02. For the same molecule, the EC50 in assay [1] (read-out: Median EC50 in M) was found to be 11 nM.
Regarding `C[C@@H](NC(=O)[C@H](Cc1ccccc1)NC(=O)[C@@H](C)NC(=O)[C@@H](N)Cc1ccc(O)cc1)C(=O)N[C@@H](Cc1ccc(O)cc1)C(=O)N1CCC[C@H]1C(=O)N[C@@H](CO)C(=O)NCCCC[C@@H]1NC(=O)[C@H](CCC(=O)N[C@@H](Cc2c[nH]c3ccccc23)C(=O)O)NC1=O` [Compound 47, Cyclo-[L-Lys(H-Tyr-D-Ala-Phe-D-Ala-Tyr-Pro-Ser)-L-Glu(L-Trp-OH)]], the “Value of pD2 (M ± m)” value in assay [1] is 7.52 ± 0.07. In addition, the EC50 in assay [1] (read-out: Median EC50 in M) came out at 33 nM.
In the case of `C[C@@H](NC(=O)[C@@H](N)Cc1ccc(O)cc1)C(=O)N[C@@H](Cc1ccccc1)C(=O)NCC(=O)N[C@@H](Cc1ccc(O)cc1)C(=O)N1CCC[C@H]1C(=O)N[C@@H](CO)C(N)=O` [Compound 48, H-Tyr-D-Ala-Phe-Gly-Tyr-Pro-Ser-NH2], the “Value of pD2 (M ± m)” value in assay [1] amounted to 8.56 ± 0.12. The EC50 in assay [1] (read-out: Median EC50 in M) is 2.5 nM.
Consider `C[C@@H](NC(=O)[C@H](Cc1ccccc1)NC(=O)[C@@H](C)NC(=O)[C@@H](N)Cc1ccc(O)cc1)C(=O)N[C@@H](Cc1ccc(O)cc1)C(=O)N1CCC[C@H]1C(=O)N[C@@H](CO)C(N)=O` [Compound 49, H-Tyr-D-Ala-Phe-D-Ala-Tyr-Pro-Ser-NH2] (H-Y[dA]F[dA]YPS-NH2), for which the “Value of pD2 (M ± m)” value in assay [1] stood at 7.55 ± 0.11. Also, in assay [1] (read-out: Median EC50 in M), the EC50 stood at 30 nM.
On to `C[C@@H](NC(=O)[C@H](Cc1ccc(O)cc1)NC(=O)[C@@H](N)CCCNC(=N)N)C(=O)N[C@@H](Cc1ccccc1)C(=O)NCC(=O)O` [Compound 52, Arg-Tyr-D-Ala-Phe-Gly-OH] (H-RY[dA]FG-OH; N-terminus assumed), for which the EC50 in assay [1] (read-out: Median EC50) is 3000 nM. Moreover, the “Value of pD2 (M ± m)” value in assay [1] is 5.50 ± 0.07.
As to `C[C@@H](NC(=O)[C@H](Cc1ccccc1)NC(=O)[C@@H](C)NC(=O)[C@H](Cc1ccc(O)cc1)NC(=O)[C@@H](N)CCCNC(=N)N)C(=O)O` [Compound 53, H-Arg-Tyr-D-Ala-Phe-D-AlaOH] (H-RY[dA]F[dA]-OH), in the assay on BALB/c male mice (setting [2]), the “Initial sensitivity level, mean” value was 2.4 ± 0.1 s. Besides, the “Effect duration” value in the assay with BALB/c male mice (setting [3]) is 2.7 ± 0.1 s. Moreover, in assay [1], the “Value of pD2 (M ± m)” value is on record as 6.06 ± 0.12. For the same molecule, in assay [1] (read-out: Median EC50 in M), the EC50 was found to be 1000 nM.
For the molecule `CC(C)C[C@H](NC(=O)[C@H](Cc1ccccc1)NC(=O)CNC(=O)[C@@H](C)NC(=O)[C@@H](N)Cc1ccc(O)cc1)C(=O)N[C@@H](CCCNC(=N)N)C(=O)O` [Compound 56, H-Tyr-D-Ala-Gly-Phe-Leu-Arg-OH] (H-Y[dA]GFLR-OH), in assay [1], the “Value of pD2 (M ± m)” value was determined as 7.53 ± 0.22. Moreover, the EC50 in assay [1] (read-out: Median EC50 in M) turned out to be 50 nM.
For the molecule `COc1cccc(C2(O)CCCCC2CN(C)C)c1` (centres unmarked) [Tramadol], the “Initial sensitivity level, mean” value in the assay on BALB/c male mice (setting [4]) came to 2.6 ± 0.1 s. Besides, the “Effect duration” value with BALB/c male mice (Table 11, oral 50 mg/kg) was 2.6 ± 0.1 s.
For “Cyclo-[L-Lys(H-Tyr-D-Ala-Phe-D-Ala-Tyr-Pro-Ser)-L-Glu(L-Trp-NH2)]”, the results for the “Initial sensitivity level, mean” value with BALB/c male mice (setting [4]) and in the assay with BALB/c male mice (setting [2]) were 2.7 ± 0.1 s and 2.1 ± 0.1 s, respectively. For the same molecule, the “Effect duration” value is 3.9 ± 0.8 s with BALB/c male mice (setting [3]); 11.6 ± 1.7 s with mice F1(CBAxC57D16) (10 mg/kg i.p., 15 min); 15.5 ± 1.6 s in the assay on mice F1(CBAxC57D16) (10 mg/kg i.p., 30 min); 15.7 ± 1.2 s in the assay with mice F1(CBAxC57D16) (10 mg/kg i.p., 45 min); 13.0 ± 1.5 s in the assay on mice F1(CBAxC57D16) (10 mg/kg i.p., 60 min); 9.9 ± 1.5 s with mice F1(CBAxC57D16) (10 mg/kg i.p., 90 min). The “Effect duration” value in the assay on mice F1(CBAxC57D16) (10 mg/kg i.p., 120 min) amounted to 6.8 ± 0.5 s; in the assay on mice F1(CBAxC57D16) (20 mg/kg i.p., 15 min) it was 1.4 ± 1.6 s; with mice F1(CBAxC57D16) (20 mg/kg i.p., 30 min), 18.1 ± 2.3 s; in the assay with mice F1(CBAxC57D16) (20 mg/kg i.p., 45 min), 16.8 ± 2.2 s; in the assay on mice F1(CBAxC57D16) (20 mg/kg i.p., 60 min), 12.7 ± 1.8 s; in the assay on mice F1(CBAxC57D16) (20 mg/kg i.p., 90 min), 11.7 ± 1.2 s. Moreover, the “Effect duration” value with mice F1(CBAxC57D16) (20 mg/kg i.p., 120 min) turned out to be 6.3 ± 0.6 s. In addition, the “Initial sensitivity level” value in the assay with mice F1(CBAxC57D16) (10 mg/kg group) is 3.2 ± 0.3 s; in the assay with mice F1(CBAxC57D16) (20 mg/kg group) it was 3.0 ± 0.2 s.
Regarding “Cyclo-[L-Lys(H-Tyr-D-Ala-Phe-D-Ala-Tyr-Pro-Ser)-L-Glu(L-Trp-OH)]”, the “Initial sensitivity level, mean” value in the assay on BALB/c male mice (setting [4]) is 2.2 ± 0.1 s; in the assay on BALB/c male mice (setting [2]), 2.1 ± 0.1 s. For the same molecule, the “Effect duration” value with BALB/c male mice (setting [3]) was 4.1 ± 0.4 s; in the assay on mice F1(CBAxC57D16) (10 mg/kg i.p., 15 min) it was 6.8 ± 0.6 s; in the assay on mice F1(CBAxC57D16) (10 mg/kg i.p., 30 min), 6.3 ± 0.7 s; with mice F1(CBAxC57D16) (10 mg/kg i.p., 45 min), 8.4 ± 1.4 s; in the assay with mice F1(CBAxC57D16) (10 mg/kg i.p., 60 min), 7.7 ± 1.7 s; in the assay on mice F1(CBAxC57D16) (10 mg/kg i.p., 90 min), 6.7 ± 1.0 s. The “Effect duration” value with mice F1(CBAxC57D16) (10 mg/kg i.p., 120 min) came to 4.6 ± 0.3 s; in the assay with mice F1(CBAxC57D16) (20 mg/kg i.p., 15 min), 7.8 ± 0.5 s; in the assay with mice F1(CBAxC57D16) (20 mg/kg i.p., 30 min), 8.3 ± 0.8 s; with mice F1(CBAxC57D16) (20 mg/kg i.p., 45 min) it was 8.7 ± 1.2 s; with mice F1(CBAxC57D16) (20 mg/kg i.p., 60 min), 9.5 ± 1.2 s; in the assay with mice F1(CBAxC57D16) (20 mg/kg i.p., 90 min), 9.7 ± 1.3 s. The “Effect duration” value in the assay on mice F1(CBAxC57D16) (20 mg/kg i.p., 120 min) amounted to 8.2 ± 1.7 s. Moreover, the “Initial sensitivity level” value in the assay with mice F1(CBAxC57D16) (10 mg/kg group) amounted to 3.7 ± 0.2 s; with mice F1(CBAxC57D16) (20 mg/kg group) it was 3.4 ± 0.2 s.
